The record followed here is US11591604B2, “Gene expression in Bacteroides” (Massachusetts Institute of Technology, priority 2015, dated 2023).

The series concerns NanoLuc. The experiment in a line: NanoLuc luciferase reporter expression from constitutive promoters and RBSs integrated with pNBU2. In kind it is cell-based, B. thetaiotaomicron. The following applies: for Average Luminescence (RLU/CFU): RBS combined with promoter PBT1311, NanoLuc reporter, three biological replicates. The source says: FIGS. 1A-1G. Genetic parts to control expression in B. thetaiotaomicron. (FIG. 1A) The ranges of gene expression are shown for the different gene regulation systems provided herein. (FIG. 1B) IntN2 catalyzes stable integration of pNBU2-based expression constructs into one of two attBT2 sites in the B. thetaiotaomicron genome. The two attBT2 sites (attBT2-1 at nucleotide (nt) 6,217,227 and attBT2-2 at nt 6,138,320) are in the 3′ ends of tRNA^Ser genes (BT_t71 and BT_t70, respectively). (FIG. 1C) Constitutive promoters and ribosome binding sites for the construction of gene expression libraries. The putative −33 and −7 regions of the PBT1311 promoter, the Shine-Delgarno sequence, and the start codon are indicated by black boxes. Numbers below the black boxes represent nucleotide locations relative the PBT1311 transcription start site. The 26 nt sequences introduced in the PAM promoters are shown (see also FIGS. 6A-6B). Numbers at the edges of the boxes indicate the PBT1311 nucleotides replaced or the insertion site within the promoter. The location of residues randomized in the rpiL* RBS library are indicated with gray arrows (for library A: nt −14, −13, −12; for library B: nt −21, −18, −15; and for library C: nt −17, −16, −11; nt numbering is relative to the translation start site). (FIG. 1D) Activity was measured for a set of constitutive promoters and their cognate RBSs. Furthermore, a set of constitutive promoters (PBT1311, PAM1, PAM2, PAM3, PAM4) was combined with RBSs of varying strengths. Gene expression was measured using a luciferase reporter (NanoLuc). (FIG. 1E) Three large RBS libraries were constructed and combined with promoter PBT1311 to span 10^3-fold in gene expression. For reference, the parent rpiL* RBS is indicated with a black arrow. For D and E, error bars represent the standard deviation of three independent biological replicates made on separate days. (FIG. 1F) The strength of each RBS was compared to the predicted free energy of folding for the mRNA (ΔGfold,). (FIG. 1G) Strong (SEQ ID NO: 210) and weak (SEQ ID NO: 211) consensus sequences for the rpiL* −21 to −11 RBS region targeted by mutagenesis (residue locations are stated relative to the translation start site) are provided. Frequency logos were generated for the 11 strongest and 11 weakest RBSs by comparing the frequency of each nucleotide at each position in that group with the frequency of that nucleotide in that position in the full library. Position −20 and −19 were not randomized and are thus are not shown in the frequency logos.
All genetic parts in this study were characterized using the integration vector pNBU2 to ensure genetic stability of the constructs (FIG. 1B). The pNBU2 plasmid encodes the intN2 tyrosine integrase, which mediates sequence-specific recombination between the attN site of pNBU2 and one of two attBT sites located in the 3′ ends of the two tRNA^Ser genes, BT_t70 and BT_t71, on the B. thetaiotaomicron chromosome (FIG. 1B). Insertion of the pNBU2 plasmid inactivates the tRNA^Ser gene, and simultaneous insertion into both BT_t70 and BT_t71 is unlikely due to the essentiality of tRNA^Ser. pNBU2-based vectors have been used for single-copy complementation in B. thetaiotaomicron in in vitro studies (Koropatkin N M et al. Nat. Rev. Microbiol. 10:323-35, 2012) and in vivo mouse models (Martens E C et al. Cell Host Microbe 4:447-57, 2008).
B. thetaiotaomicron genetic parts were characterized with NanoLuc luciferase (Hall M P et al. ACS Chem. Biol. 7:1848-1857, 2012), which is a small (19 kDa) modified shrimp luciferase. Efforts to use members of the green fluorescent protein family and a FMN-based fluorescent reporter were not successful. NanoLuc oxidizes the exogenously-added substrate furimazine to produce glow-type bioluminescence (Emax=460 nm) with a signal half-life of 2 hr. […]

With “B6: RBS, SEQ ID NO: 6 (DNA TCCCGCATTTTAAAATAAAATAAATAATATACTTAATTAAACGAAT; chemistry not fully specified)”, the “Average Luminescence (RLU/CFU)” value amounted to 0.04723 RLU/CFU. The same measure, in the same setting: the value for “B7: RBS, SEQ ID NO: 8 (DNA TCCCGCATTTTAAAATAAAATAAATAATCTACTTAATTAAACGAAT; chemistry not fully specified)” was 0.04704 RLU/CFU. Still for that read-out and setting: the value for “A21: RBS, SEQ ID NO: 73 (DNA TCCCGCATTTTAAAATAAAATAAATTATTTATTTACTTAAACGAAT; chemistry not fully specified)” was 0.01018 RLU/CFU; that for “A31: RBS, SEQ ID NO: 103 (DNA TCCCGCATTTTAAAATAAAATAAATTATTGGTTTATTTAAACGAAT; chemistry not fully specified)” was 0.005462 RLU/CFU; that for “A25: RBS, SEQ ID NO: 84 (DNA TCCCGCATTTTAAAATAAAATAAATTATTCCTTTAATTAAACGAAT; chemistry not fully specified)” was 0.008671 RLU/CFU.

For “C19: RBS, SEQ ID NO: 48 (DNA TCCCGCATTTTAAAATAAAATAAATTATTGCTTTAGTTAAACGAAT; chemistry not fully specified)”, the “Average Luminescence (RLU/CFU)” value came to 0.01835 RLU/CFU. Same read-out and setting: the value for “C25: RBS, SEQ ID NO: 72 (DNA TCCCGCATTTTAAAATAAAATAAATTATTATTTTACTTAAACGAAT; chemistry not fully specified)” was 0.01148 RLU/CFU; that for “A29: RBS, SEQ ID NO: 95 (DNA TCCCGCATTTTAAAATAAAATAAATTATTCCTTTATTTAAACGAAT; chemistry not fully specified)” was 0.006833 RLU/CFU; that for “C41: RBS, SEQ ID NO: 117 (DNA TCCCGCATTTTAAAATAAAATAAATTATTGGTTTATTTAAACGAAT; chemistry not fully specified)” was 0.003107 RLU/CFU.

As to “A17: RBS, SEQ ID NO: 66 (DNA TCCCGCATTTTAAAATAAAATAAATTATTTTTTTAGTTAAACGAAT; chemistry not fully specified)”, the “Average Luminescence (RLU/CFU)” value worked out at 0.013 RLU/CFU.

Consider “A40: RBS, SEQ ID NO: 118 (DNA TCCCGCATTTTAAAATAAAATAAATTATTTGTTTATTTAAACGAAT; chemistry not fully specified)”, for which the “Average Luminescence (RLU/CFU)” value amounted to 0.002992 RLU/CFU. Still for that read-out and setting: the value for “A32: RBS, SEQ ID NO: 104 (DNA TCCCGCATTTTAAAATAAAATAAATTATTCTTTTAGTTAAACGAAT; chemistry not fully specified)” was 0.005311 RLU/CFU. Consider “C36: RBS, SEQ ID NO: 100 (DNA TCCCGCATTTTAAAATAAAATAAATTATTACTTTATTTAAACGAAT; chemistry not fully specified)”, for which the “Average Luminescence (RLU/CFU)” value came to 0.005692 RLU/CFU. The same measure, in the same setting: in the case of “B14: RBS, SEQ ID NO: 26 (DNA TCCCGCATTTTAAAATAAAATAAATTATCTATTTAATTAAACGAAT; chemistry not fully specified)” it was 0.02715 RLU/CFU.

Turning to “B36: RBS, SEQ ID NO: 112 (DNA TCCCGCATTTTAAAATAAAATAAATCATATAATTAATTAAACGAAT; chemistry not fully specified)”, the “Average Luminescence (RLU/CFU)” value was determined as 0.004282 RLU/CFU.

Consider “A24: RBS, SEQ ID NO: 83 (DNA TCCCGCATTTTAAAATAAAATAAATTATTCTTTTACTTAAACGAAT; chemistry not fully specified)”, for which the “Average Luminescence (RLU/CFU)” value turned out to be 0.009158 RLU/CFU. “C44: RBS, SEQ ID NO: 122 (DNA TCCCGCATTTTAAAATAAAATAAATTATTTGTTTACTTAAACGAAT; chemistry not fully specified)”: the “Average Luminescence (RLU/CFU)” value turned out to be 0.00249 RLU/CFU. Take “C12: RBS, SEQ ID NO: 37 (DNA TCCCGCATTTTAAAATAAAATAAATTATTAGTTTAGTTAAACGAAT; chemistry not fully specified)”: the “Average Luminescence (RLU/CFU)” value is reported as 0.02151 RLU/CFU.

“C28: RBS, SEQ ID NO: 81 (DNA TCCCGCATTTTAAAATAAAATAAATTATTCATTTATTTAAACGAAT; chemistry not fully specified)”: the “Average Luminescence (RLU/CFU)” value is 0.009278 RLU/CFU. In the case of “C42: RBS, SEQ ID NO: 119 (DNA TCCCGCATTTTAAAATAAAATAAATTATTCTTTTAGTTAAACGAAT; chemistry not fully specified)”, the “Average Luminescence (RLU/CFU)” value is on record as 0.002801 RLU/CFU.

Regarding “C26: RBS, SEQ ID NO: 75 (DNA TCCCGCATTTTAAAATAAAATAAATTATTTATTTACTTAAACGAAT; chemistry not fully specified)”, the “Average Luminescence (RLU/CFU)” value came out at 0.009775 RLU/CFU. For the substance “B1: RBS, SEQ ID NO: 1 (DNA TCCCGCATTTTAAAATAAAATAAATTATTCGTTTAGTTAAACGAAT; chemistry not fully specified)”, the “Average Luminescence (RLU/CFU)” value turned out to be 0.09025 RLU/CFU. Besides, where the note is “set of 8 RBSs, under control of PBT1311, NanoLuc reporter”, the “Expression Level (RLU/CFU)” value was found to be 9.02E-02 RLU/CFU. Consider “C47: RBS, SEQ ID NO: 126 (DNA TCCCGCATTTTAAAATAAAATAAATTATTTGTTTAATTAAACGAAT; chemistry not fully specified)”, for which the “Average Luminescence (RLU/CFU)” value is 0.00189 RLU/CFU. On the same count and under the same terms, in the case of “C1: RBS, SEQ ID NO: 11 (DNA TCCCGCATTTTAAAATAAAATAAATTATTGATTTAGTTAAACGAAT; chemistry not fully specified)” it was 0.04468 RLU/CFU; in that of “B22: RBS, SEQ ID NO: 55 (DNA TCCCGCATTTTAAAATAAAATAAATCATGTAATTAATTAAACGAAT; chemistry not fully specified)”, 0.01599 RLU/CFU. Regarding “B25: RBS, SEQ ID NO: 63 (DNA TCCCGCATTTTAAAATAAAATAAATGATTTAGTTAATTAAACGAAT; chemistry not fully specified)”, the “Average Luminescence (RLU/CFU)” value was 0.01415 RLU/CFU.

Consider “A30: RBS, SEQ ID NO: 101 (DNA TCCCGCATTTTAAAATAAAATAAATTATTCCTTTACTTAAACGAAT; chemistry not fully specified)”, for which the “Average Luminescence (RLU/CFU)” value is reported as 0.005604 RLU/CFU. With “B19: RBS, SEQ ID NO: 42 (DNA TCCCGCATTTTAAAATAAAATAAATTATGTATTTAATTAAACGAAT; chemistry not fully specified)”, the “Average Luminescence (RLU/CFU)” value was found to be 0.02048 RLU/CFU. On to “B32: RBS, SEQ ID NO: 92 (DNA TCCCGCATTTTAAAATAAAATAAATGATGTAGTTAATTAAACGAAT; chemistry not fully specified)”, for which the “Average Luminescence (RLU/CFU)” value was found to be 0.007096 RLU/CFU. Same read-out and setting: in the case of “A13: RBS, SEQ ID NO: 58 (DNA TCCCGCATTTTAAAATAAAATAAATTATTGATTTACTTAAACGAAT; chemistry not fully specified)” it was 0.01484 RLU/CFU; in that of “C3: RBS, SEQ ID NO: 14 (DNA TCCCGCATTTTAAAATAAAATAAATTATTACTTTAATTAAACGAAT; chemistry not fully specified)”, 0.03677 RLU/CFU. As to “C46: RBS, SEQ ID NO: 125 (DNA TCCCGCATTTTAAAATAAAATAAATTATTTGTTTAGTTAAACGAAT; chemistry not fully specified)”, the “Average Luminescence (RLU/CFU)” value was found to be 0.001945 RLU/CFU. “B24: RBS, SEQ ID NO: 62 (DNA TCCCGCATTTTAAAATAAAATAAATCATTTATTTAATTAAACGAAT; chemistry not fully specified)”: the “Average Luminescence (RLU/CFU)” value amounted to 0.01427 RLU/CFU.
